Drawing on EP2892896B1 (Bristol-Myers Squibb Company, priority 2012, dated 2014), this text covers Ki for 26 compounds.

Usually Ki stands for the dissociation constant of the complex between target and ligand, obtained from inhibition or displacement.

In the assay the target is T1, human melanin concentrating hormone receptor (MCHR1) (Homo sapiens, UniProt Q99705, A5T/E4Q).
T1 construct: expressed in transfected cells; host or cells: HEK-293 (stably transfected), membranes
T1 sequence (Q99705 whole entry E4Q/A5T): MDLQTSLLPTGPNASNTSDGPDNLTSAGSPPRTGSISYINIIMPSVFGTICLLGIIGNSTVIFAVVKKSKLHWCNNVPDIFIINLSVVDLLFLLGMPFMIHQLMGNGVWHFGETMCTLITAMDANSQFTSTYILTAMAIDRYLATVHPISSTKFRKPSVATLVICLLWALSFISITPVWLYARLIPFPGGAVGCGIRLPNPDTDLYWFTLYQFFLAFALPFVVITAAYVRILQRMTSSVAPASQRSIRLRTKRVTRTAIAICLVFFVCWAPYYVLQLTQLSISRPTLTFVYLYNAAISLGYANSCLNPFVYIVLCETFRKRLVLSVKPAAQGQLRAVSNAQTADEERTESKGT
Briefly: Radioligand binding assay for assessment of MCHR1 activity. The note with it: membranes from HEK-293 cells expressing a mutated (E4Q, A5T) hMCHR1 receptor; competition with 0.06 - 0.1 nM [Phe13, [125I]Tyr19]-MCH; 90 min. As for the experimental part:
Radioligand Binding Assay for Assessment of MCHR1 Activity
An in vitro binding assay was used to determine the compound Ki value or ability to antagonize binding of a peptide agonist to the human melanin concentrating hormone receptor (MCHR1). […] Binding experiments were carried out with 0.5-1.0 µg of membrane protein incubated in a total of 0.2 mL in 25 mM HEPES (pH 7.4) with 10 mM MgCl2, 2 mM EGTA, and 0.1% BSA (Binding Buffer) for 90 min. For competition binding assays, reactions were carried out in the presence of with 0.06 - 0.1 nM [Phe^13, [^125I]Tyr^19]-MCH and increasing concentrations of unlabeled test molecules. […] Filters were dried, 0.05 mL MicroScint 20 was added to each well and radioactivity was subsequently quantified by scintillation counting on a TOPCOUNT® microplate scintillation counter (Packard). Inhibitory constants were determined by nonlinear least squares analysis using a four parameter logistic equation.
`COc1cc(N2CCC(Oc3ccc(-n4cccc4)cc3)C2=O)ccc1OCC(C)(C)O` (centres unmarked) [Example 38] yielded a Ki of 5 nM.

In turn, `COc1cc(N2CCC(Oc3ccc(-c4ccccc4Cl)cc3)C2=O)ccc1OCC(C)(C)O` (centres unmarked) [Example 25] gave a Ki of 68 nM. With `COc1cc(N2CC[C@H](Oc3ccc(C4CC4)cc3)C2=O)ccc1OCCS(C)(=O)=O` [Example 73] the figure was 87 nM. The compound `COc1cc(N2CCC(Oc3ccc(Br)c(Cl)c3)C2=O)ccc1OCC(C)(C)O` (centres unmarked) [Example 41] had a Ki of 522 nM.

`COc1cc(N2CCC(Oc3ccc(-c4ccccc4)cc3)C2=O)ccc1OCC(C)(C)O` (centres unmarked) [Example 19] yielded a Ki of 4 nM.

As for `COc1cc(N2CCC(Oc3ccc(-c4ccccc4)c(Cl)c3)C2=O)ccc1OCC(C)(C)O` (centres unmarked) [Example 29], the affinity corresponds to a Ki of 87 nM. Turning to `COc1ccc(N2CCC(Oc3ccc(-c4ccccc4)cc3)C2=O)cc1OC` (centres unmarked) [Example 43], the Ki is 19 nM. With `COc1cc(N2CC[C@@H](Oc3ccc(C(F)(F)F)cc3)C2=O)ccc1OCC(C)(C)O` (single isomer, unassigned) [Example 9] the figure was 23 nM; with `COc1cc(N2CCC(Oc3ccc(Cl)cc3)C2=O)ccc1OCC(C)(C)O` (centres unmarked) [Example 3], 2060 nM; with `COc1cc(N2CCC(Oc3ccc(-c4ccccc4)cc3)C2=O)ccc1OCCS(C)(=O)=O` (centres unmarked) [Example 66], 2 nM. `CCS(=O)(=O)C[C@@H](O)COc1ccc(N2CCC(Oc3ccc(OC4CC4)cc3)C2=O)cc1OC` (some centres unmarked) [Example 56] yielded a Ki of 71 nM. For `COc1cc(N2CCC(Oc3ccc(OC(F)(F)F)cc3)C2=O)ccc1OCCS(C)(=O)=O` (centres unmarked) [Example 65, 1-(3-Methoxy-4-(2-(methylsulfonyl)ethoxy)phenyl)-3-(4-(trifluoromethoxy)phenoxy)pyrrolidin-2-one], the inhibitory constant (Ki) worked out at 8 nM. As for `COc1cc(N2CCC(Oc3ccc(-c4ccccc4OC)cc3)C2=O)ccc1OCC(C)(C)O` (centres unmarked) [Example 27], the Ki worked out at 238 nM. Compound `COc1cc(N2CCC(Oc3ccc(-c4ccccc4F)cc3)C2=O)ccc1OCCS(C)(=O)=O` (centres unmarked) [Example 67, 3-(2'-Fluorobiphenyl-4-yloxy)-1-(3-methoxy-4-(2-(methylsulfonyl)ethoxy)phenyl)pyrrolidin-2-one] showed a Ki of 6 nM. With `Cc1cc(N2CC[C@@H](Oc3ccc(-c4ccccc4)cc3)C2=O)ccc1OCCS(C)(=O)=O` (single isomer, unassigned) [Example 106] the figure was 636 nM. Compound `Cc1cc(N2CCC(Oc3ccc(-c4ccccc4)cc3)C2=O)ccc1OC[C@H](O)CS(C)(=O)=O` (some centres unmarked) [Example 95] registered an inhibitory constant (Ki) of 15 nM. With `Cc1cc(N2CCC(Oc3ccc(OC(F)(F)F)cc3)C2=O)ccc1OCC(C)(C)O` (centres unmarked) [Example 77] the figure was 15 nM; with `Cc1cc(N2CC[C@H](Oc3ccc(-c4ccc(F)cc4)cc3)C2=O)ccc1OCCS(C)(=O)=O` [Example 111], 1740 nM; with `CS(=O)(=O)CCOc1ccc(N2CCC(Oc3ccc(-c4ccccc4)cc3)C2=O)cc1OCCF` (centres unmarked) [Example 72], 7 nM.

The compound `Cc1cc(N2CCC(Oc3ccc(-c4ccc(F)cc4)cc3)C2=O)ccc1OC[C@H](O)CS(C)(=O)=O` (some centres unmarked) [Example 96] displayed a Ki of 22 nM. In the case of `Cc1cc(N2CC[C@@H](Oc3ccc(-c4ccc(F)cc4)cc3)C2=O)ccc1OCCS(C)(=O)=O` [Example 110], the affinity corresponds to a Ki of 3 nM. For the compound `CCS(=O)(=O)C[C@@H](O)COc1ccc(N2CCC(Oc3ccc(-c4ccccc4)cc3)C2=O)cc1C` (some centres unmarked) [Example 91], the affinity, expressed as Ki, was 7 nM. `Cc1cc(N2CCC(Oc3ccc(-c4ccncc4)cc3)C2=O)ccc1OCC(C)(C)O` (centres unmarked) [Example 89] showed a Ki of 37 nM. On to `COc1cc(N2CCC(Oc3ccccc3C(F)(F)F)C2=O)ccc1OCC(C)(C)O` (centres unmarked) [Example 6], for which the Ki was 7000 nM. With `Cc1cc(N2CCC(Oc3ccc(-c4ccccc4)cc3)C2=O)ccc1OCC[S+](C)[O-]` (centres unmarked) [Example 102] the figure was 6 nM; with `COc1cc(N2CCC(Oc3ccc(-c4ccncc4)cc3)C2=O)ccc1OCC(C)(C)O` (centres unmarked) [Example 37], 73 nM.
